This data set in a line: Phase II single-dose oral pharmacokinetic study of urolithin A in a maltodextrin formulation. Type of data set: in vivo. Conditions: human, n = 12. The method, then:
A phase II clinical study was carried out to determine the bioavailability of urolithin A when dosed in a formulation containing maltodextrin to human subjects.
In particular, the pharmacokinetic parameters of the compound were investigated in an open-label, parallel-arm, randomized, single-period, single-dose pharmacokinetic study. Subject enrolled where healthy volunteers, both males and females aged between 18 and 45 years. Formulation details and clinical study procedures are described in the method section below.
Subjects were administered orally as a single dose with a maltodextrin formulation (Table 2). The formulations was administered to deliver a total dose of 500 mg Urolithin A per dosing. Plasma samples were collected pre-dosing and at sequential time points after dosing, i.e. 1 hr, 4 hrs, 6 hrs, 8 hrs, 12 hrs, 24 hrs, 72 hrs. Plasma levels of parent Urolithin A were determined and expressed as pg/ml.
A total of 24 participants were enrolled in the study (12 subject per group). Subjects were healthy male and female participants. Subjects were selected after a screening to meet all the following criteria aged between 18 and 45 years; with Body Mass Index (BMI) between 18.50-30.00 kg/m2;
Maltodextrin formulation (urolithin A Powder with Maltodextrin): half a scoop (1.5 g) of powder, containing 500 mg of Urolithin A. Composition is described in Table 2.
Mode of Administration: Participants take the powder orally on an empty stomach in a sitting position, after an overnight fast. The powder was mixed with 240±2 mL of milk, shaken well, and consumed. It was ensured that all liquid was swallowed without leaving any residue behind or retaining in the mouth.
This study was an open-label, parallel-arm, single-period, single-dose, randomized study wherein each participant received a single dose of allocated investigational product administered orally to the trial participants in a sitting posture. The formulation was administered with about 240 mL of whole milk (3% fat content) in a sitting posture.
PK blood samples were collected at pre-dose and post-dose at 1 hr, 4 hrs, 6 hrs, 8 hrs, 12 hrs, 24 hrs, 72 hrs. PK blood samples were collected by direct vein puncture or using a venous cannula. When multiple blood sample collection were scheduled on the same day from the same participant, at the discretion of the investigator, a venous cannula was inserted and blood samples collected from the cannula to avoid multiple pricks. For the same, an intravenous (IV) cannula was placed in a forearm vein or dorsal aspect of the hand of the participants. Intravenous indwelling cannula kept in situ as long as required by injecting 0.3 mL of normal saline or heparinized saline (to prevent the cannula from clogging). Because the cannula contains stagnant blood and normal or heparinized saline, it was […] before collection of the pharmacokinetic blood sample, for the same, 0.3 mL (or as appropriate depending upon the size and length of the cannula) of normal saline/heparinized saline diluted blood was discarded prior to collection of the next PK sample. […] All PK blood samples was collected or transferred (in case if collected in a syringe) in K2-EDTA blood collection tubes.
After collection, the PK blood samples were centrifuged at 4000 RPM at 4° C.±2° C. for 10 minutes. The plasma was separated and transferred to labeled polypropylene tubes and stored in a freezer at −80° C.±10° C. Pharmacokinetics parameters of Urolithin A were calculated from the concentration Vs. time data using Phoenix@WinNonlin® professional software (Version 8.1.1 or higher) (Certara, Princeton, New Jersey, USA).

SMILES strings stand for the structures.

As to `O=c1oc2cc(O)ccc2c2ccc(O)cc12` [Urolithin A], the “Urolithin concentrations in blood, Mean” value (Pre-dose, plasma parent Urolithin A) stood at 1.00 pg/mL. Moreover, under “both sexes, 1 h after single oral 500 mg Urolithin A in maltodextrin formulation, plasma, read-out: Urolithin concentrations in blood, Mean”, the concentration at 1 h is 0.551 ng/mL. Besides, the concentration at 4 h (both sexes, 4 h after single oral 500 mg Urolithin A in maltodextrin formulation, plasma, read-out: Urolithin concentrations in blood, Mean) was 1.07 ng/mL. For the same compound, the concentration at 6 h (both sexes, 6 h after single oral 500 mg Urolithin A in maltodextrin formulation, plasma, read-out: Urolithin concentrations in blood, Mean) was found to be 1.4 ng/mL. Further, the concentration at 8 h (both sexes, 8 h after single oral 500 mg Urolithin A in maltodextrin formulation, plasma, read-out: Urolithin concentrations in blood, Mean) is 0.775 ng/mL. The concentration at 12 h (both sexes, 12 h after single oral 500 mg Urolithin A in maltodextrin formulation, plasma, read-out: Urolithin concentrations in blood, Mean) came out at 0.72 ng/mL. For the same compound, the concentration at 24 h (both sexes, 24 h after single oral 500 mg Urolithin A in maltodextrin formulation, plasma, read-out: Urolithin concentrations in blood, Mean) was 0.404 ng/mL. Besides, the concentration at 72 h (both sexes, 72 h after single oral 500 mg Urolithin A in maltodextrin formulation, plasma, read-out: Urolithin concentrations in blood, Mean) amounted to 0.167 ng/mL.
